Test results published in paper PMC7983969 (Virologica Sinica, 2021).

How the values were obtained:
[1] = system: human cell lines and primary cells; settings: cited from earlier work
[2] = system: Vero E6 cells; test: Cytotoxicity assay; format: cell-based, African green monkey; settings: 72 h, CCK-8 assay
[3] = system: PEDV; test: Anti-PEDV activity assay, viral loads; format: cell-based; settings: for concentration that completely inhibited PEDV replication: Vero E6 cells, PEDV 0.01 MOI, 48 h post infection, qRT-PCR and TCID50
[4] = system: PDCoV; settings: ref Brown et al. [2019]; cited from earlier work
[5] = system: PEDV; test: Anti-PEDV activity assay, PEDV-induced cytopathic effect; format: cell-based; settings: Vero E6 cells, PEDV 0.01 MOI, until virus control showed complete CPE
[6] = system: feline infectious peritonitis virus (FIPV); settings: cats, subcutaneous, 5 mg/kg or 2 mg/kg; ref Murphy et al. [2018]; cited from earlier work
[7] = system: PEDV spike protein; test: Indirect immuno-fluorescence assay; format: cell-based, porcine epidemic diarrhea virus, variant strain SDSX16; settings: 0.2 μmol/L, 48 h, Vero E6 cells
[8] = Pharmacokinetics study of RDV-N in ICR mice; format: in vivo
[9] = Water solubility and lipophilicity; format: physicochemical
[10] = system: PEDV 3CL^pro; settings: PEDV 3CLpro; ref Ye et al. [2020]; cited from earlier work

Compound | CC50 [1] [nM] | maximal non-toxic concentration (MNTC) [2] [µmol/L] | concentration that completely inhibited PEDV replication [3] [µmol/L] | EC50 [4] [nM] | concentration at which PEDV-induced CPE was obviously blocked [5] [µmol/L] | cure rate [6] [%] | fluorescence intensity (viral protein expression) [7] | fold more potent than NHC (EC50) ([3]; 72 h post infection, qRT-PCR) | half-life ([8]; male, ICR, mouse, plasma, iv, 25 mg/kg) [h] | half-life ([8]; male, ICR, mouse, plasma, po, 50 mg/kg) [h] | Tmax ([8]; male, ICR, mouse, plasma, po, 50 mg/kg, Tmax, mice) [h] | AUClast ([8]; mice, IV, 25 mg/kg) | AUClast ([8]; mice, PO, 50 mg/kg) [ng·h/mL] | Cmax ([8]; mice, PO, 50 mg/kg) [ng/mL] | lipophilicity [9] | water solubility [9] | IC50 [10] [nM]
CCC(CC)COC(=O)[C@H](C)N[P@](=O)(OC[C@H]1O[C@@](C#N)(c2ccc3c(N)ncnn23)[C@H](O)[C@@H]1O)Oc1ccccc1 [RDV, remdesivir] | 1700 to 15000 | 125 | 7.8 | 20 | 0.5 |  |  |  |  |  |  |  |  |  |  |  | 
N#C[C@@]1(c2ccc3c(N)ncnn23)O[C@H](CO)[C@@H](O)[C@H]1O [RDV-N] |  | 125 | 2.0 |  | 0.2 | 100 | significantly decreased | 3 | 1.02 | 1.2 | ≤ 1 | 14,513 h × ng/mL | 4556 | 1826 | low lipophilicity | poor water solubility | 
GC376 |  |  |  |  |  |  |  |  |  |  |  |  |  |  |  |  | 1110
